Structures can show the parent of a compound that is named as a salt.

One assay relates to primary human T-cells. In words: Primary human T-cell proliferation assay stimulated with IL-2 (CellTiter-Glo). It counts as cell-based. As to conditions: primary human T-cells, IL-2, 72 hours, ATP readout; read-out: Example 4 IC50. From the text:
In this assay, primary human T-cells derived from peripheral blood and pre-activated through stimulation of the T-cell receptor and CD28, proliferate in culture in response to the cytokine Interleukin-2 (IL-2). This proliferative response is dependent on the activation of JAK1 and JAK3 tyrosine kinases, which phosphorylate and activate the transcription factor Stat-5. […] A reduction in cell proliferation compared to control conditions is indicative of inhibition of the JAK kinase pathway. An exemplary assay of this type is described in greater detail below.
Primary human T-cells derived from peripheral blood and pre-activated through stimulation of the T-cell receptor and CD28, proliferate in vitro in response to the cytokine Interleukin-2 (IL-2). This proliferative response is dependent on the activation of JAK-1 and JAK-3 tyrosine kinases, which phosphorylate and activate the transcription factor Stat-5.
Human primary T cells were prepared as follows. […] The lymphocytes at the serum: ficoll interface were recovered and washed twice with 5 volumes of PBS. […] The primary T-cells were stimulated for 3-4 days, then transferred to a fresh flask and maintained in RPMI with 10% FBS and 40 U/mL IL-2.
Primary T-cells were washed twice with PBS to remove the IL-2 and resuspended in Yssel's medium at 2×10^6 cells/mL. 50 μL of cell suspension containing 80 U/mL IL-2 was added to each well of a flat bottom 96 well black plate. For the unstimulated control, IL-2 was omitted from the last column on the plate. […] 50 μL of 2× compound was added per well in duplicate and the cells were allowed to proliferate for 72 hours at 37° C.
Proliferation was measured using CellTiter-Glo® Luminescent Cell Viability Assay (Promega), which determines the number of viable cells in culture based on quantitation of the ATP present, as an indicator of metabolically active cells. The substrate was thawed and allowed to come to room temperature. After mixing the Cell Titer-Glo reagent and diluent together, 100 μL was added to each well. […]
In general terms: In ATP-based viability assays light output follows the ATP content of the culture.

The test system of a further assay is JAK/Stat pathway. Briefly: U937 IFNγ ICAM1 FACS assay. The class given is cell-based, human. The conditions noted are these: U937 cells, IFNγ 10 ng/mL, 18-24 hours, ICAM-1 expression; read-out: Example 6 IC50. As for the experimental part:
U937 human monocytic cells up-regulate ICAM-1 (CD54) surface expression in response to a variety of different stimuli. Therefore, using ICAM-1 expression as readout, compound effects on different signaling pathways can be assessed in the same cell type. IFNγ up-regulates ICAM-1 through activation of the JAK/Stat pathway. In this example, the up-regulation of ICAM-1 by IFNγ was assessed.
U937 cells were grown in 10% RPMI. The cells were then plated at a concentration of 100,000 cells per 160 μL in 96 well flat bottom plates. […] Then 4 μL of test compound was transferred to 76 μL of 10% RPMI resulting in a 10× solution (100 μM test compound, 5% DMSO). For control wells, 4 μL of DMSO was diluted into 76 μL 10% RPMI.
The assay was performed in duplicate with 8 points (8 3-fold dilution concentrations from […]) and with 4 wells of DMSO only (control wells) under stimulated conditions and 4 wells of DMSO only under unstimulated conditions.
The diluted compound plate was mixed 2× using a multimek (Beckman Coulter of Brea, Calif.) and then 20 μL of the diluted compounds was transferred to the 96 well plate containing 160 μL of cells, which were then mixed again twice at low speeds. The cells and compounds were then pre-incubated for 30 minutes at 37° C. with 5% CO2.
The 10× stimulation mix was made by preparing a 100 ng/mL solution of human IFNγ in 10% RPMI. […] The cells were kept under conditions for stimulation for 18-24 hours at 37° C. with 5% CO2.
The cells were transferred to a 96 well round bottom plate for staining and then kept on ice for the duration of the staining procedure. Cells were spun down at 1000 rpm for 5 minutes at 4° C., following which the supernatant was removed. Following removal of the supernatant, 1 μL APC conjugated mouse anti-human ICAM-1 antibody was added per 100 μL FACS buffer. The cells were then incubated on ice in the dark for 30 minutes. Following incubation, 150 μL of FACS buffer was added and the cells were centrifuged at 1000 rpm for 5 minutes at 4° C., following which the supernatant was removed. […]
Both % live cells and ICAM-1 expression was analyzed. […]
(In general: In flow cytometry, cells or beads pass a laser one at a time.)

In the case of `C#CCOc1ccc(Nc2nc(Nc3ccc(C)c(S(=O)(=O)NC(=O)CC)c3)ncc2F)cc1` [VI, 5-Fluoro-N2-[4-methyl-3-(N-propionylaminosulfonyl)phenyl]-N4-[4-(2-propynyloxy)phenyl]-2,4-pyrimidinediamine Arginine Salt], the IC50 was determined as 262 nM with primary human T-cells and 424 nM with JAK/Stat pathway.

Broadly, the IC50 is the concentration at which inhibition is half-maximal.

Values taken from patent publication US8497279B2, “Treatment for discoid lupus” (Rigel Pharmaceuticals, Inc., priority 2011, dated 2013).
